According to ChEMBL document CHEMBL3526019, “Novel cytochrome P450-mediated ring opening of the 1,3,4-oxadiazole in setileuton, a 5-lipoxygenase inhibitor” (Drug Metab Dispos, 2011):

Tests used:
[1] = biological target: T1, Cytochrome P450 3A1 (Rattus norvegicus, UniProt P04800); assay: Activity of rat recombinant CYP3A1 expressed in baculovirus-infected insect cells assessed as enzyme-mediated compound formation treated with setileuton at 10 uM preincubated for 3 mins measured after 30 mins in presence of 1 mM NADPH; format: ADME; settings: 0.5 h
T1 sequence (P04800 whole entry): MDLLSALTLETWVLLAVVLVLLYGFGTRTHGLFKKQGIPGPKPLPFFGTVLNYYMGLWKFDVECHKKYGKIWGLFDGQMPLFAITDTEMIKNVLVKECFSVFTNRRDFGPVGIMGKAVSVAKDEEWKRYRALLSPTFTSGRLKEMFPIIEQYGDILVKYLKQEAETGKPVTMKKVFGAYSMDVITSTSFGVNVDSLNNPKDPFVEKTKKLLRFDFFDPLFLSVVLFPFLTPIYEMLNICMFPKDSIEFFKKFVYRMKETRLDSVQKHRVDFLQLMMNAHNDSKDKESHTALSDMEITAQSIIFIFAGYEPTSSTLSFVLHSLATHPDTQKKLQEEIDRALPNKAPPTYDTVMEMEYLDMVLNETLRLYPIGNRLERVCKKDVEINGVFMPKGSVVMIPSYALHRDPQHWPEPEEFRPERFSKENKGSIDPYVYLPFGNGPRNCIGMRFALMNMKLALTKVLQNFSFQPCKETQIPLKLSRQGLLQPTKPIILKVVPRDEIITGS

[2] = biological target: T2, Cytochrome P450 1A2 (Rattus norvegicus, UniProt P04799); assay: Activity of CYP1A2 in rat liver microsomes assessed as enzyme mediated compound formation treated with 10 uM setileuton after 2 mins in absence of NADPH (reference value: 1.93 +/- 0.40 nM); format: ADME
T2 sequence (P04799 whole entry): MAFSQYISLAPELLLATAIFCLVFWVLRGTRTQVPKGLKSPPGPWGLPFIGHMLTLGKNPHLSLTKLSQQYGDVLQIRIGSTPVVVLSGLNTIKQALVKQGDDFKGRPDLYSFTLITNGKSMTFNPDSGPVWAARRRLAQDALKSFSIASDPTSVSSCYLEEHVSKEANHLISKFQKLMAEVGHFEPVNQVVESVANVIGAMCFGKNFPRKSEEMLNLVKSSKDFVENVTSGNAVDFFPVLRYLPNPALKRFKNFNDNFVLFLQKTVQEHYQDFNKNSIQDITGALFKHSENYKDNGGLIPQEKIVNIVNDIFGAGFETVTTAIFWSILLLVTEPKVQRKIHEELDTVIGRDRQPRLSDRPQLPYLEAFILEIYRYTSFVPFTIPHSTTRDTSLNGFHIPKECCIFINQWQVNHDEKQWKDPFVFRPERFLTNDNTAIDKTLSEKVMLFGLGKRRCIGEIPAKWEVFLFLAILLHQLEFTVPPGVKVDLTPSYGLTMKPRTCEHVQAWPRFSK

[3] = biological target: T3, Cytochrome P450 1A1 (Rattus norvegicus, UniProt P00185); assay: Activity of rat recombinant CYP1A1 expressed in baculovirus-infected insect cells assessed as enzyme-mediated compound formation treated with setileuton at 10 uM preincubated for 3 mins measured after 30 mins in presence of 1 mM NADPH; format: ADME; settings: 0.5 h
T3 sequence (P00185 whole entry): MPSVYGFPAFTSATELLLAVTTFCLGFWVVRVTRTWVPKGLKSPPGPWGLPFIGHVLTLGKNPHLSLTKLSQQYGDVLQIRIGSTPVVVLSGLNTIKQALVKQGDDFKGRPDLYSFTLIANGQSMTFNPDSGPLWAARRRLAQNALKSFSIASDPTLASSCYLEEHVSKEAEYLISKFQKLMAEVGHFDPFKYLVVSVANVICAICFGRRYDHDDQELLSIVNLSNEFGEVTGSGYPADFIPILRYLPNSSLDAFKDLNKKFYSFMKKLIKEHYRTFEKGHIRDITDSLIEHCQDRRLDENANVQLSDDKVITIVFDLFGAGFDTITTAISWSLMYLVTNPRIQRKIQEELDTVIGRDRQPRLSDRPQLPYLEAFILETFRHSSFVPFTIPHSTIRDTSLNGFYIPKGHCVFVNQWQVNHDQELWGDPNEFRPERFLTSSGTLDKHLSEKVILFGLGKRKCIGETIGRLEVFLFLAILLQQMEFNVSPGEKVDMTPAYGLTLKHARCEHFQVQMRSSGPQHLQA

[4] = biological target: T2, Cytochrome P450 1A2; assay: Activity of CYP1A2 in rat liver microsomes assessed as enzyme mediated compound formation treated with 10 uM setileuton after 5 mins in presence of NADPH (reference value: 8.10 +/- 2.26 nM); format: ADME
[5] = biological target: T2, Cytochrome P450 1A2; assay: Activity of CYP1A2 in rat liver microsomes assessed as enzyme mediated compound formation treated with 10 uM setileuton after 5 mins in absence of NADPH (reference value: 1.93 +/- 0.40 nM); format: ADME
[6] = biological target: T2, Cytochrome P450 1A2; assay: Activity of CYP1A2 in rat liver microsomes assessed as enzyme mediated compound formation treated with 10 uM setileuton after 2 mins in presence of NADPH (reference value: 8.10 +/- 2.26 nM); format: ADME
[7] = biological target: T2, Cytochrome P450 1A2; assay: Activity of CYP1A2 in rat liver microsomes assessed as enzyme mediated compound formation treated with 10 uM setileuton after 10 mins in presence of NADPH (reference value: 8.10 +/- 2.26 nM); format: ADME
[8] = biological target: T2, Cytochrome P450 1A2; assay: Activity of rat recombinant CYP1A2 expressed in baculovirus-infected insect cells assessed as enzyme-mediated compound formation treated with setileuton at 10 uM preincubated for 3 mins measured after 30 mins in presence of 1 mM NADPH; format: ADME; settings: 0.5 h
[9] = Drug level in rat urine treated with setileuton; format: ADME, tissue-based; settings: in vivo
[10] = system: Liver microsome; assay: Drug level in NADPH fortified rat liver microsomes treated with setileuton; format: ADME
[11] = biological target: T2, Cytochrome P450 1A2; assay: Activity of CYP1A2 in rat liver microsomes assessed as enzyme mediated compound formation treated with 10 uM setileuton after 8 mins in presence of NADPH (reference value: 8.10 +/- 2.26 nM); format: ADME
[12] = biological target: T2, Cytochrome P450 1A2; assay: Activity of CYP1A2 in rat liver microsomes assessed as enzyme mediated compound formation treated with 10 uM setileuton after 8 mins in absence of NADPH (reference value: 1.93 +/- 0.40 nM); format: ADME
[13] = biological target: T2, Cytochrome P450 1A2; assay: Activity of CYP1A2 in rat liver microsomes assessed as enzyme mediated compound formation treated with 10 uM setileuton after 10 mins in absence of NADPH (reference value: 1.93 +/- 0.40 nM); format: ADME
[14] = biological target: T4, Cytochrome P450 3A2 (Rattus norvegicus, UniProt P05183); assay: Activity of rat recombinant CYP3A2 expressed in baculovirus-infected insect cells assessed as enzyme-mediated compound formation treated with setileuton at 10 uM preincubated for 3 mins measured after 30 mins in presence of 1 mM NADPH; format: ADME; settings: 0.5 h
T4 sequence (P05183 whole entry): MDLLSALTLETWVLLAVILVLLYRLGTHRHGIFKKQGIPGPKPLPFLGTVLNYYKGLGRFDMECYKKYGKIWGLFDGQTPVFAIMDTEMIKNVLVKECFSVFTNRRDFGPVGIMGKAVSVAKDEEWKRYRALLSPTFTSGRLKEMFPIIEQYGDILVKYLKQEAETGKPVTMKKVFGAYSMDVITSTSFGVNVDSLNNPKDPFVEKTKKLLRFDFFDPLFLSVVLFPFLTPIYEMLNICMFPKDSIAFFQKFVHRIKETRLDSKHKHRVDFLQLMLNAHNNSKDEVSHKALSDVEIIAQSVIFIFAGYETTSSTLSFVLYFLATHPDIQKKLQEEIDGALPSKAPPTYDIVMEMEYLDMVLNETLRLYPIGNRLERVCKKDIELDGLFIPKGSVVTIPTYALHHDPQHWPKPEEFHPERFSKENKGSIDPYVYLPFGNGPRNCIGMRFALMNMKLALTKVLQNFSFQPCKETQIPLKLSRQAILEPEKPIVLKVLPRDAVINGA

[15] = Drug metabolism in rat urine assessed as N-((4-(4-fluorophenyl)-2-oxochroman-7-yl)methyl)-2-((S)-2-hydroxy-2-(trifluoromethyl)butanoyl)hydrazinecarboxamide level; format: ADME, tissue-based
[16] = biological target: T4, Cytochrome P450 3A2; assay: Activity of rat recombinant CYP3A2 expressed in baculovirus-infected insect cells assessed as enzyme-mediated N-((4-(4-fluorophenyl)-2-oxochroman-7-yl)methyl)-2-((S)-2-hydroxy-2-(trifluoromethyl)butanoyl)hydrazinecarboxamide formation at 10 uM preincubated for 3 mins measured after 30 mins in presence of 1 mM NADPH; format: ADME; settings: 0.5 h
[17] = biological target: T1, Cytochrome P450 3A1; assay: Activity of rat recombinant CYP3A1 expressed in baculovirus-infected insect cells assessed as enzyme-mediated N-((4-(4-fluorophenyl)-2-oxochroman-7-yl)methyl)-2-((S)-2-hydroxy-2-(trifluoromethyl)butanoyl)hydrazinecarboxamide formation preincubated for 3 mins by Michaelis-Menten equation in presence of NADPH for 10 mins; format: ADME
[18] = biological target: T3, Cytochrome P450 1A1; assay: Activity of rat recombinant CYP1A1 expressed in baculovirus-infected insect cells assessed as enzyme-mediated N-((4-(4-fluorophenyl)-2-oxochroman-7-yl)methyl)-2-((S)-2-hydroxy-2-(trifluoromethyl)butanoyl)hydrazinecarboxamide formation at 10 uM preincubated for 3 mins measured after 30 mins in presence of 1 mM NADPH; format: ADME; settings: 0.5 h
[19] = biological target: T2, Cytochrome P450 1A2; assay: Activity of rat recombinant CYP1A2 expressed in baculovirus-infected insect cells assessed as enzyme-mediated N-((4-(4-fluorophenyl)-2-oxochroman-7-yl)methyl)-2-((S)-2-hydroxy-2-(trifluoromethyl)butanoyl)hydrazinecarboxamide formation preincubated for 3 mins by Michaelis-Menten equation in presence of NADPH for 10 mins; format: ADME
[20] = system: Liver microsome; assay: Drug metabolism in NADPH fortified rat liver microsomes assessed as N-((4-(4-fluorophenyl)-2-oxochroman-7-yl)methyl)-2-((S)-2-hydroxy-2-(trifluoromethyl)butanoyl)hydrazinecarboxamide level; format: ADME
[21] = biological target: T1, Cytochrome P450 3A1; assay: Activity of rat recombinant CYP3A1 expressed in baculovirus-infected insect cells assessed as enzyme-mediated N-((4-(4-fluorophenyl)-2-oxochroman-7-yl)methyl)-2-((S)-2-hydroxy-2-(trifluoromethyl)butanoyl)hydrazinecarboxamide formation at 10 uM preincubated for 3 mins measured after 30 mins in presence of 1 mM NADPH; format: ADME; settings: 0.5 h
[22] = biological target: T2, Cytochrome P450 1A2; assay: Activity of rat recombinant CYP1A2 expressed in baculovirus-infected insect cells assessed as enzyme-mediated N-((4-(4-fluorophenyl)-2-oxochroman-7-yl)methyl)-2-((S)-2-hydroxy-2-(trifluoromethyl)butanoyl)hydrazinecarboxamide formation at 10 uM preincubated for 3 mins measured after 30 mins in presence of 1 mM NADPH; format: ADME; settings: 0.5 h
[23] = system: Liver microsome; assay: Drug metabolism in rat liver microsomes assessed as N-((4-(4-fluorophenyl)-2-oxochroman-7-yl)methyl)-2-((S)-2-hydroxy-2-(trifluoromethyl)butanoyl)hydrazinecarboxamide formation by Michaelis-Menten equation in presence of 1 mM NADPH for 10 mins; format: ADME
[24] = substrate: CC[C@](O)(c1nnc(NCc2ccc3c(-c4ccc(F)cc4)cc(=O)oc3c2)o1)C(F)(F)F; assay: Activity of rat recombinant CYP3A2 expressed in baculovirus-infected insect cells assessed as enzyme-mediated N-((4-(4-fluorophenyl)-2-oxochroman-7-yl)methyl)-2-((S)-2-hydroxy-2-(trifluoromethyl)butanoyl)hydrazinecarboxamide formation preincubated for 3 mins by Michaelis-Menten equation in presence of NADPH for 10 mins; format: ADME
[25] = substrate: CC[C@](O)(c1nnc(NCc2ccc3c(-c4ccc(F)cc4)cc(=O)oc3c2)o1)C(F)(F)F; assay: Activity of rat recombinant CYP1A1 expressed in baculovirus-infected insect cells assessed as enzyme-mediated N-((4-(4-fluorophenyl)-2-oxochroman-7-yl)methyl)-2-((S)-2-hydroxy-2-(trifluoromethyl)butanoyl)hydrazinecarboxamide formation preincubated for 3 mins by Michaelis-Menten equation in presence of NADPH for 10 mins; format: ADME

Molecule: CC[C@](O)(C(=O)NNC(=O)NCc1ccc2c(-c3ccc(F)cc3)cc(=O)oc2c1)C(F)(F)F
- Drug metabolism [1]: metabolite_detected
- Drug metabolism [2]: 1.81 nM
- Drug metabolism [3]: metabolite_detected
- Drug metabolism [4]: 57.93 nM
- Drug metabolism [5]: 1.66 nM
- Drug metabolism [6]: 29.74 nM
- Drug metabolism [7]: 100.4 nM
- Drug metabolism [8]: metabolite_detected
- Drug metabolism [9]: metabolite_detected
- Drug metabolism [10]: metabolite_detected
- Drug metabolism [11]: 74.89 nM
- Drug metabolism [12]: 1.43 nM
- Drug metabolism [13]: 1.56 nM
- Drug metabolism [14]: metabolite_detected

Molecule: CC[C@](O)(c1nnc(NCc2ccc3c(-c4ccc(F)cc4)cc(=O)oc3c2)o1)C(F)(F)F [SETILEUTON]
- Drug metabolism [15]: metabolite_detected
- Drug metabolism [16]: metabolite_detected
- S50 [17]: 8.2 µM
- Drug metabolism [18]: metabolite_detected
- S50 [19]: 8.2 µM
- Drug metabolism [20]: metabolite_detected
- Drug metabolism [21]: metabolite_detected
- Drug metabolism [22]: metabolite_detected
- S50 [23]: 10.6 µM

B1: Cytochrome P450 3A2 (Rattus norvegicus) (protein)
chain: T4 sequence (P05183 whole entry)
- Km [24]: 2.2 µM

B2: Cytochrome P450 1A1 (Rattus norvegicus) (protein)
chain: T3 sequence (P00185 whole entry)
- Km [25]: 6 µM
